Literature values, collected in US6468963B1, “Methods and formulations for reducing toxicity associated with diabetes treatments” (BioNumerik Pharmaceuticals, Inc., priority 2000, dated 2002).

Legend:
mice = details: doses higher than 3750 mg/kg (accepted LD50 for common table salt)
dogs = details: doses higher than 3750 mg/kg (accepted LD50 for common table salt)
humans = details: doses exceeding 40 g/m^2
[1] = accepted value; species not stated

Row | SMILES | adverse effects (mice) | adverse effects (dogs) | adverse effects (humans) | LD50 [1] [mg/kg]
1 | O=S(=O)([O-])CCSSCCS(=O)(=O)[O-].[Na+].[Na+] [Dimesna, disodium 2,2′-dithiobis ethane sulfonate] | no adverse effects | no adverse effects | no adverse effects | 
2 | [Cl-].[Na+] [common table salt] |  |  |  | 3750
